In patent US7250157B2, “Dermatological compositions and methods” (Applied Genetics Incorporated Dermatics, priority 1996, dated 2007):
Several values for one entry are separate records, joined by “and”; a condition that tells them apart may be missing. Equal entries are not always repeated. Where two headings read alike, the source gives them in different places.

Key:
[1] = test system: Cloudman S91 mouse melanoma cell line; assay: Melanin content of S91 cells after treatment with test compound; assay type: cell-based; settings: for melanogenesis in S91 cells (in words): PKC inhibitors
Experimental: The Cloudman S91 mouse melanoma cell line was obtained from American Type Culture Collection (ATCC). […] For testing propylene glycol and analogues for induction of melanogenesis, S91 cells were plated at 10^5 cells/35 mm dish in 10% calf serum. […] Cells were cultured for 6 days at 37° C. in 5% CO2 in a humidified incubator. Following this treatment period, cells were examined microscopically and the portion of dedifferentiated and differentiated cells was estimated.
Following this microscopic examination, cells were detached from dishes by trypsin. The time required for detachment by trypsin was recorded as an additional indicator of the phenotypic effects of test compounds. For each treatment, a subsample of cells was counted to determine the effects of treatment compounds on cellular proliferation. The remainder of cells were used for determination of melanin content. […] Absorbance of standards and samples was measured at 475 nm. Melanin was expressed as pg melanin/cell.

[2] = test system: tyrosinase activity in S91 mouse melanoma cells; assay: Induction of tyrosinase activity in S91 cells
Experimental: Compounds were examined for their ability to induce tyrosinase activity in S91 mouse melanoma cells. […] Following treatments, cells were trypsinized, counted by Coulter, pelleted by centrifugation at 1000×g, and analyzed for tyrosinase activity using modifications of previously described procedures (Pomerantz, S. H., 1966, J. Biol. Chem. 241:161-168; Jara, et al., 1988, Pigment Cell Res. 1: 332-339.). Briefly, cell pellets were solubilized by sonicating for 5 seconds in 600 ul 50 mM phosphate buffer pH 6.8 containing 0.5% Triton-X100, followed by vortexing, incubation on ice for 30 min, and then revortexing. From this, 200 ul aliquots were combined with 200 ul of reaction mixture containing either 75 uM tyrosine, 75 uM L-Dopa, and 2 uCi L-[3,5-^3H]Tyrosine in 50 mM NaPO4 pH 6.8 (L-Dopa+), or, 75 uM tyrosine, and 2 uCi L-[3,5-^3H]Tyrosine in 50 mM NaPO4 pH 6.8 (L-Dopa−) and incubated 1 hr at 37° C. Reactions were stopped by addition of 400 ul 10% activated charcoal in 0.1N HCl and incubation on ice for 15 min. This mixture was centrifuged at 17,300×g for 5 min, and 400 ul supernatant was then filtered through a 0.22 uM GV Durapore centifugal filter unit (Millipore) by centrifuging at 17,300×g for 5 min. Filtrate was added to 4 ml Fisher Plus scintillation fluid and counted on a Hewlett Packard scintillation counter. Tyrosinase activity was calculated as dpm/hr/ug protein and dpm/hr/10^3 cells. Each sample was analyzed with and without L-Dopa, a necessary cofactor for tyrosinase (Pomerantz, S. H., 1966, J. Biol. Chem. 241:161-168; McLane, et al., 1987, Biochem. Biophys. Res. Commun. 145:719-725). All reported tyrosinase values are exclusive of counts that occurred in buffer blanks and L-dopa negative aliquots. Protein was determined on aliquots of cell lysate, extracellular particulate lysate or media by the Bradford Coomassie Blue method (Bradford, 1967, Anal. Biochem. 72:248-254) using Bio-Rad Protein Assay Kit I.

[3] = test system: Tyrosinase in normal human epidermal melanocytes (NHEM); assay: Tyrosinase in NHEM (in situ, cellular, extracellular particulate, media); assay type: cell-based
Experimental: Tyrosinase was measured in normal human epidermal melanocytes (NHEM) using procedures identical to those described for S91 cells (Example 6), […], 1600×g, or 17,300×g for analysis of tyrosinase activity in the extracellular exported melanosomal particulate fraction, and in the resultant supernatant media fraction. In some cases (Table 11), tyrosinase was also measured by an in situ assay wherein radiolabelled tyrosine was added directly to freshly replaced media of NHEM for a period of 24 hrs following a 5 day treatment period (Abdel-Malek, et al., 1992, J. Cell. Physiol. 150:416-425). […] Both 5 mM 5-NBene-2,2-DM and 25 mM 3,3-M-1,2-BD induced more tyrosinase in each of these assays and fractions than did 1,2-PG. IBMX (3-isobutyl-1-methyl-xanthine) provided as a positive control, induced as much tyrosinase as 5 mM 5-NBene-2,2-DM in the in situ assay, but less in cellular, extracellular particulate and media fractions (Table 11).

[4] = test system: American short-haired guinea pigs; assay: Topical melanogenesis (pigmentation rating) in guinea pigs; assay type: in vivo, guinea pig; set-up: Pigmentation Rating / Pigmentation Rating Background Corrected: scale not given here; settings: for relative melanogenesis rating (mean ±SE), scale 0-4: 25 μl twice per day for 5 days, rated two weeks after
Experimental: Compounds were tested for melanogenic activity in vivo by application to American short-haired guinea pigs. Treatment sites were created by removal of fur using Nair® brand depilatory. In the Table, the numbers presented are the relative melanogenesis rating (mean ±SE), and are arranged according to the relative location on the animal, with the head being to the left and the tail being to the right. Propylene glycol (PG=13.6M), 2,3-butanediol (2,3-BD=10.95M), and 1,2-cis-cyclopentanediol (1,2-cs-CPD=10.7M) were applied as full strength solutions. 3,3-dimethyl-1,2-butanediol (3,3-M-1,2-BD) was applied as a 4M solution dissolved in ethanol. Two weeks following cessation of treatments, the degree of pigmentation was subjectively rated according to the following scale:
In order to minimize the effects of dimunition of response from head to tails of animals, all future experiments were done using only treatment spots located towards the tails of animals (c and d in Table 7). Deemed as additionally beneficial, in this area of the animal differences of responsiveness to strong and weak inducers of pigmentation, as deduced from cell culture, were greatest. […] Pigmentation ratings were corrected for background (control treatment spots), normalized to 1M to account for the different amounts of each agent applied, and then normalized to results for 1,2-PG (Table 8). […] It is anticipated that further improvements in formulation will additionally improve responsiveness to 5-NBene-2,2-DM and other compounds in this invention.
In FIG. 5, a, b, c and d indicate treatment spots that transverse the anterior-posterior axis along the backs of guinea pigs.

[5] = range of concentrations up to a toxic dose
[6] = 300 mM PG-1,2, 25 mM 3,3-M-1,2-BD, 50 mM 1,2-cs-CPD, 5 mM 5-NBene-2,2-DM, 0.5 mM 2,3-Pyd, 0.1 mM IBMX, mean ±SE
[7] = 5 day treatment, concentrations as E130
[8] = pair of replicates, concentrations as E130
[9] = No Penetration Enhancer, concentrations as E85

## CNC[C@H](O)[C@@H](O)[C@H](O)[C@H](O)CO [N-methyl-D-glucamine]
[1]; [5]
  melanogenesis in S91 cells (≧2-fold increase = significant): did not induce significant (≧2-fold increase) melanogenesis

## C[C@]12CC[C@@H]3c4ccc(O)cc4CC[C@H]3[C@@H]1CC[C@@H]2O [β-Estradiol, β-estradiol, reference compound]
[1]
  Concentration Required for ≧2-fold Melanin Induction in S91 Cells: 500 µM

## CC(C)Cn1c(=O)n(C)c(=O)c2[nH]cnc21 [IBMX, 3-isobutyl-1-methylxanthine, reference compound]
[2]; [6]
  Tyrosinase dpm/hr 10^3 Cells: 765 ± 53 dpm/hr/10^3 Cells
  Tyrosinase dpm/hr ug Protein: 2161 ± 41 dpm/hr/ug Protein
[3]; 5 day treatment, 300 mM 1,2-PG, 25 mM 3,3-M-1,2-BD, 5 mM 5-NBene-2,2-DM, 0.1 mM IBMX
  Tyrosinase In Situ: 25.3 dpm/hr/10^3 Cells and 26.1 dpm/hr/10^3 Cells
[3]; [7]
  Tyrosinase 200 g Partic: 2189 dpm/hr/10^3 Cells and 1834 dpm/hr/10^3 Cells
  Tyrosinase Cellular: 10910 dpm/hr/10^3 Cells and 11737 dpm/hr/10^3 Cells
[3]; Post 200 X g, 5 day treatment, concentrations as E130
  Tyrosinase 17300 g Partic: 220 dpm/hr/10^3 Cells and 260 dpm/hr/10^3 Cells
[3]; Post 17300 X g, 5 day treatment, concentrations as E130
  Tyrosinase Media: 2698 dpm/hr/10^3 Cells and 2935 dpm/hr/10^3 Cells
[3]; [8]
  Tyrosinase 200 g Partic, relative to controls (in parentheses): (5.86X)
  Tyrosinase 17300 g Partic, relative to controls (in parentheses): (2.10X)
  Tyrosinase Cellular, relative to controls (in parentheses): (1.11X)
  Tyrosinase In Situ, relative to controls (in parentheses): (1.62X)
  Tyrosinase Media, relative to controls (in parentheses): (1.81X)

## OC1OCCOC1O (stereo not drawn) [1,4-Dioxane-2,3-Diol, 1,4-dioxane-2,3-diol]
[1]
  Concentration Required for ≧2-fold Melanin Induction in S91 Cells: 500 µM

## CCCCCCCC/C=C\CCCCCCCC(=O)O [oleic acid]
[1]; [5]
  melanogenesis in S91 cells (≧2-fold increase = significant): did not induce significant (≧2-fold increase) melanogenesis

## O=C1O[C@H]([C@@H](O)CO)C(O)=C1O [ascorbic acid]
[1]; [5]
  melanogenesis in S91 cells (≧2-fold increase = significant): did not induce significant (≧2-fold increase) melanogenesis

## CC(O)(CO)c1ccccc1 (stereo not drawn) [2-phenyl-1,2-propanediol]
[1]; [5]
  melanogenesis in S91 cells (≧2-fold increase = significant): did not induce significant (≧2-fold increase) melanogenesis

## O=CC[C@H](O)[C@H](O)CO [2-deoxy-D-ribose]
[1]; [5]
  melanogenesis in S91 cells (≧2-fold increase = significant): did not induce significant (≧2-fold increase) melanogenesis

## CCCC[N+](CCCC)(CCCC)CCCC.[Cl-] [tetrabutylammonium chloride]
[1]
  melanogenesis in S91 cells (≧2-fold increase = significant): did not induce significant (≧2-fold increase) melanogenesis

## O[C@@H]1CCC[C@H]1O (relative stereo) [1,2-trans-Cyclopentanediol, 1,2-trans-cyclopentanediol]
[1]
  Concentration Required for ≧2-fold Melanin Induction in S91 Cells: 50000 µM

## 1-propanol
[1]; [5]
  melanogenesis in S91 cells (≧2-fold increase = significant): did not induce significant (≧2-fold increase) melanogenesis

## CCCCCCCCCCCCN1CCCCCC1=O [Azone®]
[1]; [5]
  melanogenesis in S91 cells (≧2-fold increase = significant): did not induce significant (≧2-fold increase) melanogenesis

## CC(CO)CO [2-M-1,3-PG, 2-Methyl-1,3-Propanediol]
[1]
  Concentration Required for ≧2-fold Melanin Induction in S91 Cells: 50000 µM
[4]; [9]
  Pigmentation Rating Normalized to 1,2-PG: 2.9 ± 0.4
  Pigmentation Rating Normalized to 1M: 0.044 ± 0.006
[4]; No Penetration Enhancer, corrected for Nair control, concentrations as E85
  Pigmentation Rating Background Corrected: 0.50 ± 0.07
[4]; No Penetration Enhancer, sites c and d, 13.61M 1,2-PG, 11.0M 2,3-M-2,3-BD, 11.3M 2-M-1,3-PG, 8.7M 1,2-cs-CPD, 4.0M 3,3-M-1,2-BD
  Pigmentation Rating: 0.58 ± 0.08
[4]; same relative body position
  melanogenesis in guinea pigs (in words): only slightly better melanogenic agents than propylene glycol
[4]; site a (head), PG 13.6M, 2,3-BD 10.95M, 1,2-cs-CPD 10.7M full strength, 3,3-M-1,2-BD 4M in ethanol
  relative melanogenesis rating (mean ±SE), scale 0-4: 1.25 ± 0.52
[4]; site c, full strength, 3,3-M-1,2-BD 4M in ethanol
  relative melanogenesis rating (mean ±SE), scale 0-4: 0.58 ± 0.08^2

## O=c1[nH]cc(CO)c(=O)[nH]1 [hydroxymethyl uracil]
[1]; [5]
  melanogenesis in S91 cells (≧2-fold increase = significant): did not induce significant (≧2-fold increase) melanogenesis

## OCC1CC2CCC1C2 (stereo not drawn) [2-NBaneM, 2-Norbornanemethanol]
[2]
  induction of tyrosinase in S91 cells compared with 5-NBene-2,2-DM (FIG. 2): Lesser induction
[3]; Black-Neonatal-NHEM, 1 mM
  Tyrosinase Cellular: 10863 dpm/hr/10^3 cells
  Tyrosinase Cellular relative to Control: 1.10 X
  Tyrosinase In Situ: 12.1 dpm/hr/10^3 cells
  Tyrosinase In Situ relative to Control: 0.97 X
  Tyrosinase Media relative to Control: 1.68 X
[3]; Black-Neonatal-NHEM, 1 mM, media from 1 day treatment period
  Tyrosinase Media: 18.7 dpm/hr/10^3 cells
[3]; Black-Neonatal-NHEM, 5 mM
  Tyrosinase Cellular: 17397 dpm/hr/10^3 cells
  Tyrosinase Cellular relative to Control: 1.77 X
  Tyrosinase In Situ: 12.8 dpm/hr/10^3 cells
  Tyrosinase In Situ relative to Control: 1.02 X
  Tyrosinase Media relative to Control: 3.36 X
[3]; Black-Neonatal-NHEM, 5 mM, media from 1 day treatment period
  Tyrosinase Media: 37.3 dpm/hr/10^3 cells
[3]; White-Adult-NHEM, 1 mM
  Tyrosinase Cellular: 15257 dpm/hr/10^3 cells
  Tyrosinase Cellular relative to Control: 1.09 X
  Tyrosinase In Situ: 7.05 dpm/hr/10^3 cells
  Tyrosinase In Situ relative to Control: 1.27 X
  Tyrosinase Media relative to Control: 1.11 X
[3]; White-Adult-NHEM, 1 mM, media from 1 day treatment period
  Tyrosinase Media: 29.2 dpm/hr/10^3 cells
[3]; White-Adult-NHEM, 5 mM
  Tyrosinase Cellular: 16077 dpm/hr/10^3 cells
  Tyrosinase Cellular relative to Control: 1.15 X
  Tyrosinase In Situ: 6.18 dpm/hr/10^3 cells
  Tyrosinase In Situ relative to Control: 1.11 X
  Tyrosinase Media relative to Control: 1.33 X
[3]; White-Adult-NHEM, 5 mM, media from 1 day treatment period
  Tyrosinase Media: 48.1 dpm/hr/10^3 cells

## CCCCCCCCCCCCC/C=C/[C@@H](O)[C@@H](N)CO [D-sphingosine, reference compound]
[1]
  effect on melanogenesis induced by propylene glycol in S91 cells: enhanced melanogenesis induced by propylene glycol
  melanogenesis in S91 cells (in words): induced melanogenesis

## O=C(O)C(O)C(O)C(=O)O (stereo not drawn) [tartaric acid]
[1]; [5]
  melanogenesis in S91 cells (≧2-fold increase = significant): did not induce significant (≧2-fold increase) melanogenesis

## OC1CCCC(O)C1 (stereo not drawn) [1,3-cyclohexanediol]
[1]; [5]
  melanogenesis in S91 cells (≧2-fold increase = significant): did not induce significant (≧2-fold increase) melanogenesis

## CC(C)O [2-propanol]
[1]; [5]
  melanogenesis in S91 cells (≧2-fold increase = significant): did not induce significant (≧2-fold increase) melanogenesis

## CC(C)[C@H]1CC[C@H](C)C[C@@H]1O [(1S,2R,5S)-(+)-menthol, (1S,2R,5S)-2-isopropyl-5-methylcyclohexanol]
[2]; 0.5 mM (Table 19)
  Fold Induction of Tyrosinase Relative to Controls: 0.7X
[2]; 1 mM (Table 19)
  Fold Induction of Tyrosinase Relative to Controls: 1.3X

## CC1CNCCN1S(=O)(=O)c1cccc2cnccc12 (stereo not drawn) [H7, 1-[5-isoquinolinyl-sulfonyl]-2-methyl-piperazine, reference compound]
[1]
  effect on melanogenesis induced by propylene glycol in S91 cells: enhanced melanogenesis induced by propylene glycol
  melanogenesis in S91 cells (in words): induced melanogenesis
